Data on 26 molecules can be found in patent US9480259B2, “Pyrazolopyrans having herbicidal and pharmaceutical properties” (BASF SE, priority 2012, dated 2016).

For this test, the target named is Arabidopsis thaliana SHMT. The experiment in a line: SHMT activity assay (ED50 SHMT), coupled with N5,N10-CH2-THF dehydrogenase, NADH at 340 nm. Format: biochemical. A digest of the protocol: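 His-tagged SHMT purified on Ni-NTA. NADH formation followed at 340 nm for 30 min; ED50 from inhibition of initial velocity.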
Where [1] appears, read: Arabidopsis thaliana SHMT enzyme assay, values given as upper bounds.
The mark [2] stands for this setting: inhibition of initial velocity of Arabidopsis thaliana SHMT.
The mark [3] stands for this setting: Table 2, values given as upper bounds.
The mark [4] stands for this setting: Table 2, Arabidopsis thaliana SHMT enzyme assay, values given as upper bounds.

Turning to `Cc1n[nH]c2c1C(c1cc(C#N)cc(NS(=O)(=O)C(F)(F)F)c1)(C1CCC1)C(C#N)=C(N)O2` (centres unmarked) [Compound 2.733], the EC50 under setting [1] was less than 100 nM.

For `Cc1n[nH]c2c1C(c1cc3c(C(F)(F)F)cccc3s1)(C1CCC1)C(C#N)=C(N)O2` (centres unmarked) [Compound 4.38], the EC50 under setting [2] is less than 10 nM.

With `CCCc1n[nH]c2c1C(CC)(c1cc(C(F)(F)F)cc(C(F)(F)F)c1)C(C#N)=C(N)O2` (centres unmarked) [Compound 2.83.], the concentration giving a half-maximal response (EC50) under setting [3] was less than 1000 nM.

With `CCC1(c2cc(Cl)cc(Cl)c2)C(C#N)=C(N)Oc2[nH]nc(C)c21` (centres unmarked) [Compound 2.12.], under setting [3], the EC50 is less than 100 nM.

The molecule `Cc1n[nH]c2c1C(c1cc(C#N)cc(-c3cc(C(=O)O)cc([N+](=O)[O-])c3)c1)(C1CCC1)C(C#N)=C(N)O2` (centres unmarked) [Compound 2.566] returned a concentration giving a half-maximal response (EC50) under setting [3] of less than 10 nM.

In the case of `Cc1n[nH]c2c1C(c1ccc3ccccc3c1)(C1(F)CC1)C(C#N)=C(N)O2` (racemic) [Compound 4.59], the EC50 under setting [2] was less than 100 nM.

Take `N#CC1=C(N)Oc2[nH]ncc2C1(c1cc(C#N)cc(C(F)(F)F)c1)C1CC1` (centres unmarked) [Compound 2.361]: the concentration giving a half-maximal response (EC50) under setting [4] is less than 100 nM.

`COC(=O)c1cc(F)cc(-c2cc(C#N)cc(C3(C4CCC4)C(C#N)=C(N)Oc4[nH]nc(C)c43)c2)c1` (centres unmarked) [Compound 2.513] returned a half-maximal effective concentration (EC50) under setting [3] of less than 10 nM.

The molecule `CCCc1n[nH]c2c1C(c1ccc(Cl)cc1)(C1CC1)C(C#N)=C(N)O2` (centres unmarked) [Compound 2.115.] registered an EC50 under setting [3] of less than 100 nM.

For the molecule `Cc1ccc(-c2ccc(C3(C4CCC4)C(C#N)=C(N)Oc4[nH]nc(C)c43)s2)cc1` (centres unmarked) [Compound 4.13], the EC50 under setting [2] is less than 10 nM.

Regarding `N#CC1=C(N)Oc2[nH]ncc2C1(c1cc(C#N)cc(-c2ccccn2)c1)C1CCC1` (centres unmarked) [Compound 2.348], the EC50 under setting [4] was less than 10 nM.

`CCOc1n[nH]c2c1C(c1cc(Cl)cc(Cl)c1)(C(C)C)C(C#N)=C(N)O2` (centres unmarked) [Compound 2.384] gave an EC50 under setting [4] of less than 10 nM.

On to `Cc1n[nH]c2c1C(c1ccc(-c3cccc(C(F)(F)F)c3)s1)(C1CCC1)C(C#N)=C(N)O2` (centres unmarked) [Compound 4.43], for which the EC50 under setting [2] is less than 10 nM.

On to `CCc1n[nH]c2c1C(CC)(c1cc(Cl)cc(C#N)c1)C(C#N)=C(N)O2` (centres unmarked) [Compound 2.573], for which the EC50 under setting [3] was less than 100 nM.

As for `COc1ccc(-c2cc(C#N)cc(C3(C4CCC4)C(C#N)=C(N)Oc4[nH]nc(C)c43)c2)cc1C(F)(F)F` (centres unmarked) [Compound 2.547], the EC50 under setting [3] is less than 10 nM.

Under setting [3], `COC(=O)c1cc(-c2cc(C#N)cc(C3(C4CCC4)C(C#N)=C(N)Oc4[nH]nc(C)c43)c2)cc(C(F)(F)F)c1` (centres unmarked) [Compound 2.552] came in with a concentration giving a half-maximal response (EC50) of less than 100 nM.

For `Cc1n[nH]c2c1C(c1cc(Cl)cc(Oc3ccc(O)c(C(F)(F)F)c3)c1)(C1CCC1)C(C#N)=C(N)O2` (centres unmarked) [Compound 2.597], the EC50 under setting [3] is less than 100 nM.

Take `CCC1(c2ccc(OS(=O)(=O)c3ccc(Cl)cc3)c(C)c2)C(C#N)=C(N)Oc2[nH]nc(C)c21` (centres unmarked) [Compound 2.57.]: the EC50 under setting [3] was less than 10000 nM.

Turning to `Cc1n[nH]c2c1C(c1cc(-c3nnn[nH]3)cc(N(C)C(=O)CCCC#N)c1)(C1CCC1)C(C#N)=C(N)O2` (centres unmarked) [Compound 2.690], the concentration giving a half-maximal response (EC50) under setting [1] is less than 1000 nM.

In turn, `COc1ccc(Oc2cc(Cl)cc(C3(C4CCC4)C(C#N)=C(N)Oc4[nH]ncc43)c2)cc1` (centres unmarked) [Compound 2.343] yielded an EC50 under setting [4] of less than 10 nM.

For the molecule `Cc1n[nH]c2c1C(c1cc(C#N)cc(-c3nnn[nH]3)c1)(C1CCC1)C(C#N)=C(N)O2` (centres unmarked) [Compound 2.357], the EC50 under setting [4] was less than 100 nM.

`COc1ccc(C2(C3CCCC3)C(C#N)=C(N)Oc3[nH]nc(C)c32)cc1C(F)(F)F` (centres unmarked) [Compound 2.215] displayed an EC50 under setting [4] of less than 10 nM.

In the case of `CCCC1(c2cc(C#N)cc(C#N)c2)C(C#N)=C(N)Oc2[nH]nc(C(C)C)c21` (centres unmarked) [Compound 2.586], the EC50 under setting [3] is less than 1000 nM.

Under setting [3], `COC(=O)c1ccc(-c2cc(C#N)cc(C3(C4CCC4)C(C#N)=C(N)Oc4[nH]nc(C)c43)c2)cc1F` (racemic) [Compound 2.521] returned an EC50 of less than 10 nM.

Consider `N#CC1=C(N)Oc2[nH]ncc2C1(c1cc(Cl)cc(Cl)c1)C1CCC1` (centres unmarked) [Compound 2.244], for which the half-maximal effective concentration (EC50) under setting [4] is less than 10 nM.

As for `CCC1(c2cccc(Cl)c2)C(C#N)=C(N)Oc2[nH]nc(C3CC3)c21` (centres unmarked) [Compound 2.117.], under setting [3], the EC50 was less than 10000 nM.

By EC50 is commonly meant the midpoint of the concentration-response curve.
